One series has as its system NSCs. The series is described as follows: Cell viability of NSCs (CCK-8, MTT, LDH). The format is cell-based, rat. The following applies: 48 hours. The method, then: NSCs were isolated from the brain of a rat embryo, cultured and developed. The NSC culture was performed in the same manner as to be described below. Briefly describing, a rat embryo was obtained on day 13 of the embryonic period, and the brain was quickly removed and placed in a petri dish containing cold phosphate-buffered physiological saline (Hank's balanced salt solution; HBSS).
Single cells were isolated from the cerebral cortex, the lateral ganglion eminence, and the embryonic midbrain. These cells were put into a dish pre-treated with L-ornithine and fibronectin, containing calcium and magnesium-free phosphate-buffered physiological saline (PBS) at a density of 20,000 cells/cm^2. In addition, the cells were cultured in an N2 medium (DMEM F/12, […] insulin, 100 mg/L transferrin, 30 nM selenite, […], 20 nM progesterone, 0.2 mM ascorbic acid, […], 8.6 mM D(+) glucose, and […]). The culture was maintained in humidified and 5% CO2 conditions for 4 to 6 days at 37° C.
NSCs were divided into 6 samples, and each sample was treated with […] Aβ25-30 oligomers for 48 hours to identify a suitable concentration. […] Briefly, Aβ25-30 was dissolved in hexafluoroisopropanol to reach a concentration of 1 mM. In addition, the prepared solution was dispensed using a sterilized ultramicrocentrifuge tube. […]
To identify the PEP1 effect in NSCs, PEP1 was treated at various concentrations of 0, 1, 10, 50, 100, and 200 μM for 48 hours. […] The plate was gently washed with PBS several times, and cell viability was measured using a cell counting kit-8 (CCK-8), MTT and lactate dehydrogenase (LDH).
CCK-8 was used as a method for counting living cells by bonding 2-[2-methoxy-4-nitrophenyl]-3-[4-nitrophenyl]-5-[2,4-disulfophenyl]-2H-tetrazolium, monosodium salt (WST-8) with 1-methoxyphenazinium methylsulfate (PMS). […] Cell viability was evaluated by measuring absorbance at 450 nm. […] Cell viability was evaluated by measuring absorbance at 490 nm and reference absorbance at 690 nm. […]

Series [1] can be described thus: Cell-free ROS production (DHBA level by HPLC). Conditions: 20 μM Aβ25-35 and PEP1 0, 1, 10, 50 μM. The method, then:
To investigate how Aβ25-30 and PEP1 influenced ROS, a DHBA level was measured and observed by a cell-free method. This method was carried out by observing the DHBA level in a tube containing 20 μM Aβ25-30 and each concentration of PEP1 (0, 1, 10 or 50 μM) through HPLC.

A further series relates to β-amyloid. The series is described as follows: Expression levels of all types of Aβs in 3XTg-AD mice (western blotting). It is filed as in vivo. The following applies: hippocampus and whole brain; vs control and Donepezil. On the procedure:
To test the efficacy of PEP1 on AD, AD transgenic mice (3XTg-AD) were purchased from Jackson Laboratory. Genetic characteristics of the transgenic mice are as follows: B6; 129-Psen1tm1Mpm Tg(APPSwe, tauP301L)1Lfa/Mmjax. […] One week after mice were confirmed as pregnant, new mice were delivered and weaned for 3 weeks. Two weeks later, mature mice were obtained.
During the preliminary breeding and the entire period of the experiment, a temperature was maintained at 23±2° C. and a relative humidity was maintained at 60±10%, and then the mice were raised under a 12-hour dark/light cycle. Experimental animals were divided into five groups, and each group included 10 animals. The divided experimental groups are as follows. […]
The PEP1, physiological saline, donepezil and scramble peptide were subcutaneously injected at each concentration three times a week for two months from the age of 12 months, and then two months after the injection, cognitive/memory behavior tests (passive avoidance test and Y maze test) were performed to examine a degree of improvement in cognitive function and memory function. After the brain was extracted to separate the hippocampus, the amounts of amyloid beta in the hippocampus and the whole brain, and the amounts of an amyloid beta oligomer and NFT generated by tau hyperphosphorylation were determined by western blotting and immunostaining. […]

The values below come from patent US20180318383A1, “PEPTIDE HAVING NEURONAL LOSS PREVENTION AND REGENERATION EFFECTS, AND COMPOSITION CONTAINING SAME” (GEMVAX & KAEL CO., LTD., priority 2015, published 2018).

As for “EARPALLTSRLRFIPK (homo sapiens) [PEP1, hTERT-derived peptide consisting of 16 amino acids, telomerase location [611-626]]”, the “survival ability of NSCs” value in the series on NSCs (20 μM Aβ25-35 + PEP1 up to 100 μM, vs 20 μM Aβ25-35 only, MTT, CCK-8, LDH) is recorded as “gradually increased”. For the same sequence, in the series with NSCs (NSCs, PEP1 alone 0-200 μM, CCK-8, up to 100 μM), the cell survival ability entry is reported as “not influenced”. The “ROS production under a cell-free condition” value in series [1] is recorded as “did not exhibit a significant influence”. In addition, in the series with β-amyloid, the “expression levels of all types of Aβs” value is given as “decreased”.
